# From PMC11882969 (Nature Communications, 2025)
# “And” between values parts separate entries of the source, which are not always exact repeats. Equal entries are not always repeated. Where two headings read alike, the source gives them in different places.
# What was measured:
# hCB1 = hCB1 (Homo sapiens, UniProt P21554); assay: bioSensAll ebBRET signaling profiling, hCB1; assay type: cell-based; set-up: host or cells: HEK293SL cells, transient PEI transfection; settings: for Gi1 hCB1 response: Gi1 biosensor; for Gi1 hCB1 / GoB hCB1: single replicate values, FigS6a; for Emax [95% CI]: normalized to CP-55,940; for EC50: read-out: EC50 [95% CI]
# CB1 (rCB1) = CB1 (rCB1) (Rattus norvegicus, UniProt P20272); assay: Radioligand competition binding, [3H]-CP-55,940, rat brain membranes
# Chain of CB1 (rCB1) (P20272 whole entry): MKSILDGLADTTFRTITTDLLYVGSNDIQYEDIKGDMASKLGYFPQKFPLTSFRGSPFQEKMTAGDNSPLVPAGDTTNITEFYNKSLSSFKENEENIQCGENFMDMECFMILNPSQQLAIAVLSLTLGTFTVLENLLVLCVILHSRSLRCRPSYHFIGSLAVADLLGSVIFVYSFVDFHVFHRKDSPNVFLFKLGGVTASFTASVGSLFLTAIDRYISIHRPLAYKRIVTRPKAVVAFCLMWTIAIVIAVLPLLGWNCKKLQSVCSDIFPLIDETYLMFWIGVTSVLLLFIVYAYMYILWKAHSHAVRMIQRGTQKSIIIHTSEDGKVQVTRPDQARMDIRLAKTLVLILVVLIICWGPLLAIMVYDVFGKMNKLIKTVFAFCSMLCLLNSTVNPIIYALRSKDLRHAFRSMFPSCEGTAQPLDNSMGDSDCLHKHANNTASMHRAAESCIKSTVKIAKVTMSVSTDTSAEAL
# Chain of hCB1 (P21554 whole entry): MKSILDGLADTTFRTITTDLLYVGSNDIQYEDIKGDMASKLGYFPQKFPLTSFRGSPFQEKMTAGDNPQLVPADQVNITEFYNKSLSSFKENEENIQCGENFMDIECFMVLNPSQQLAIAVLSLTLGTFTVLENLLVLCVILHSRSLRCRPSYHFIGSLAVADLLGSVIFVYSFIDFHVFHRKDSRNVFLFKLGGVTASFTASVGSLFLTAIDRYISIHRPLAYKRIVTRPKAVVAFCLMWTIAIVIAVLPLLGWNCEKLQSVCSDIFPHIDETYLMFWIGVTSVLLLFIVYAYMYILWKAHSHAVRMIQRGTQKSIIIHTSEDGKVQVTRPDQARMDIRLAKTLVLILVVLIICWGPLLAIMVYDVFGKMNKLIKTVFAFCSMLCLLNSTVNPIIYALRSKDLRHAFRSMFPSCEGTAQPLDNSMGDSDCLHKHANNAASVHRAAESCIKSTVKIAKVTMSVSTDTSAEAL
smiles,measurement,setting,value
COC(=O)[C@@H]1[C@@H]2CC[C@@H]2CN1C(=O)c1cc(C)n(-c2cccc(C(F)(F)F)c2)n1 [‘6448],Gi1 hCB1 response,hCB1; Log [Compound] (M) -4.22186,143.498
same,Gi1 hCB1 response,hCB1; Log [Compound] (M) -4.63927,116.752
same,Gi1 hCB1 response,hCB1; Log [Compound] (M) -5.05788,114.537
same,Gi1 hCB1 response,hCB1; Log [Compound] (M) -5.47381,101.197
same,Gi1 hCB1 response,hCB1; Log [Compound] (M) -5.89285,80.4274
same,Gi1 hCB1 response,hCB1; Log [Compound] (M) -6.31878,64.6261
same,Gi1 hCB1 response,hCB1; Log [Compound] (M) -6.72585,36.0226
same,Gi1 hCB1 response,hCB1; Log [Compound] (M) -7.14267,33.4711
same,Gi1 hCB1 response,hCB1; Log [Compound] (M) -7.55284,2.182
same,Gi1 hCB1 response,hCB1; Log [Compound] (M) -8,-1.914
same,Gi1 hCB1 response,hCB1; Log [Compound] (M) -8.22186,-2.63
same,Gi1 hCB1 response,hCB1; Log [Compound] (M) -8.39794,-2.8987
same,Gi1 hCB1 response,hCB1; Log [Compound] (M) -8.68787,4.689
same,Gi1 hCB1 response,hCB1; Log [Compound] (M) -9.15521,0.03327
same,Gi1 hCB1 response,hCB1; Log [Compound] (M) -9.61989,-4.421
same,Gi1 hCB1 response,hCB1; Log [Compound] (M) -10.0969,-3.391
same,Gi1 hCB1 response,hCB1; Log [Compound] (M) -10.5529,-11.5156
same,Gi1 hCB1 response,hCB1; Log [Compound] (M) -11.0177,-16.4171
same,Gi1 hCB1 response,hCB1; Log [Compound] (M) -11.4949,-6.8826
same,Gi1 hCB1 response,hCB1; Log [Compound] (M) -11.9208,-5.674
same,Gi1 hCB1 response,hCB1; Log [Compound] (M) -12.3979,-5.204
same,Gi1 hCB1 response,hCB1; Log [Compound] (M) -12.8861,5.741
same,Gi1 hCB1 response,"hCB1; Log [Compound] (M) -13, individual replicate values",-12.366 and -4.51
same,Gi1 hCB1,hCB1; Log [Compound] (M) -4.22186,89.2431
same,GoB hCB1,hCB1; Log [Compound] (M) -4.22186,86.7412
same,Gi1 hCB1,hCB1; Log [Compound] (M) -4.63927,88.0098
same,GoB hCB1,hCB1; Log [Compound] (M) -4.63927,85.932
same,Gi1 hCB1,hCB1; Log [Compound] (M) -5.05788,83.6623
same,GoB hCB1,hCB1; Log [Compound] (M) -5.05788,87.6943
same,Gi1 hCB1,hCB1; Log [Compound] (M) -5.47381,80.8256
same,GoB hCB1,hCB1; Log [Compound] (M) -5.47381,88.7014
same,Gi1 hCB1,hCB1; Log [Compound] (M) -5.89285,71.5911
same,GoB hCB1,hCB1; Log [Compound] (M) -5.89285,74.7104
same,Gi1 hCB1,hCB1; Log [Compound] (M) -6.31878,53.785
same,GoB hCB1,hCB1; Log [Compound] (M) -6.31878,55.1804
same,Gi1 hCB1,hCB1; Log [Compound] (M) -6.72585,28.6559
same,GoB hCB1,hCB1; Log [Compound] (M) -6.72585,28.2594
same,Gi1 hCB1,hCB1; Log [Compound] (M) -7.14267,11.4665
same,GoB hCB1,hCB1; Log [Compound] (M) -7.14267,15.0956
same,Gi1 hCB1,hCB1; Log [Compound] (M) -7.55284,4.6215
same,GoB hCB1,hCB1; Log [Compound] (M) -7.55284,3.137
same,Gi1 hCB1,hCB1; Log [Compound] (M) -8,2.093
same,GoB hCB1,hCB1; Log [Compound] (M) -8,2.004
same,Gi1 hCB1,hCB1; Log [Compound] (M) -8.22186,-0.06514
same,GoB hCB1,hCB1; Log [Compound] (M) -8.22186,-3.751
same,Gi1 hCB1,hCB1; Log [Compound] (M) -8.39794,1.1836
same,GoB hCB1,hCB1; Log [Compound] (M) -8.39794,1.464
same,Gi1 hCB1,hCB1; Log [Compound] (M) -8.68787,-1.113
same,GoB hCB1,hCB1; Log [Compound] (M) -8.68787,-5.28
same,Gi1 hCB1,hCB1; Log [Compound] (M) -9.15521,-0.1114
same,GoB hCB1,hCB1; Log [Compound] (M) -9.15521,-2.294
same,Gi1 hCB1,hCB1; Log [Compound] (M) -9.61989,0.7519
same,GoB hCB1,hCB1; Log [Compound] (M) -9.61989,-1.629
same,Gi1 hCB1,hCB1; Log [Compound] (M) -10.0969,0.8753
same,GoB hCB1,hCB1; Log [Compound] (M) -10.0969,-3.751
same,Gi1 hCB1,hCB1; Log [Compound] (M) -10.5529,1.9236
same,GoB hCB1,hCB1; Log [Compound] (M) -10.5529,-0.9636
same,Gi1 hCB1,hCB1; Log [Compound] (M) -11.0177,-0.281
same,GoB hCB1,hCB1; Log [Compound] (M) -11.0177,-2.384
same,Gi1 hCB1,hCB1; Log [Compound] (M) -11.4949,-0.1268
same,GoB hCB1,hCB1; Log [Compound] (M) -11.4949,-1.305
same,Gi1 hCB1,hCB1; Log [Compound] (M) -11.9208,-0.1885
same,GoB hCB1,hCB1; Log [Compound] (M) -11.9208,1.266
same,Gi1 hCB1,hCB1; Log [Compound] (M) -12.3979,1.723
same,GoB hCB1,hCB1; Log [Compound] (M) -12.3979,0.7628
same,Gi1 hCB1,hCB1; Log [Compound] (M) -12.8861,0.4436
same,GoB hCB1,hCB1; Log [Compound] (M) -12.8861,-2.798
same,Gi1 hCB1,hCB1; Log [Compound] (M) -13,0.1969 and 0.2278
same,GoB hCB1,hCB1; Log [Compound] (M) -13,1.32 and 1.356
same,pEC50 [95% CI],hCB1; hCB1 Gi1,6.5 [6.4 – 6.5]
same,Emax [95% CI],hCB1; hCB1 Gi1,87 [86 – 88]
same,pEC50 [95% CI],hCB1; hCB1 GoB,6.5 [6.4 – 6.6]
same,Emax [95% CI],hCB1; hCB1 GoB,90 [87 – 91]
same,pEC50 [95% CI],hCB1; hCB1 Gz,6.1 [5.9 – 6.4]
same,Emax [95% CI],hCB1; hCB1 Gz,151 [130 –172]
same,EC50,hCB1; hCB1 Gi1,0.345 µM
same,EC50,hCB1; hCB1 GoB,0.31 µM
same,EC50,hCB1; hCB1 Gz,0.728 µM
same,pKi [95% CI],CB1 (rCB1); rCB1,6.1 [5.9 – 6.3]
same,Ki,"CB1 (rCB1); read-out: Ki [95% CI], rCB1, [3H]-CP-55,940",0.866 µM
